Reference: US6870044B2, “Inflammation inducible hybrid promoters, vectors comprising them and uses thereof” (Universite Pierre et Marie Curie, priority 2000, dated 2005)
Several values for one entry are separate records, joined by “and”; a condition that tells them apart may be missing. Equal entries are not always repeated.

How the values were obtained:
[1] = tested on: PPARγ and RXR proteins prepared in Cos-1 cells; assay: Gel retardation, cooperative binding of PPARγ/RXR to radiolabeled PPRE sequences; settings: for cooperativity ratio KdII/KdIV (R): PPARγ/RXR ratio 3:1, Cos-1 extracts 1 μl to 10 μl, Phosphorimager quantification
Description: (§1) The Cos-1 cells (transformed monkey kidney fibroblasts) are transfected according to the abovementioned calcium phosphate technique using 20 μg of vectors for expression of PPARγ, PPARα or RXR. Non-transfected Cos-1 cells will serve as control. 48 hours after the transfection, the cells are incubated with a buffer containing KCl (0.45 M), Tris-HCl (20 mM, pH=7.5) and 10% glycerol. They are detached by scraping and then disrupted by cooling to −80° C. and thawing at 37° C. These cells are then centrifuged at 15,000 rpm, for 10 minutes at 4° C. The supernatant is then frozen at −80° C. and used for the gel retardation experiments.
(§2) The sequences DR1, (DR1)2 17, (DR1)2 21, and (DR1)2 31 are radiolabeled by means of the Klenow fragment of DNA polymerase using [α-^32P]dCTP. One hundred thousand cpm (0.4 ng) of the radiolabeled probes are incubated, for 30 minutes at 4° C., with increasing quantities of Cos-1 extracts enriched with PPAR and RXR (as indicated in the legend to the figures) and with a specific binding buffer (KCl 100 mM, Hepes 40 mM, pH 7.5, NP40 0.1%, ZnCl2 0.5 mM, PEG 8%). The mixture is then deposited on an acrylamide/bisacrylamide gel (5%, TBE 0.25×) and run for 2 hours 30 min at 200 volts. The gel is then dried and autoradiographed.
In order to verify the functional nature and the efficiency of the above PPRE regions, gel retardation experiments were carried out consisting in studying the binding between one of the four sequences above, radiolabeled beforehand, in the presence of increasing quantities (5 and 10 μl) of PPARγ and RXR proteins prepared in Cos-1 cells (PPARγ/RXR ratio=3:1).
With the aim of studying the cooperativity of the binding of PPAR/RXR to these different sequences, gel retardation experiments placing increasing quantities of Cos-1 extracts enriched with PPAR and RXR (1 μl to 10 μl), followed by quantification of the radioactivity obtained, were carried out. The formation of the first PPAR/RXR dimer is characterized by the dissociation constant KdII, that of the double dimer, or tetramer, is characterized by the dissociation constant KdIV. The KdII/KdIV ratio (R) is the reflection of the cooperativity of the binding if it is greater than 1.
The various dimeric and tetrameric complexes and the free probe were quantified by means of a Phosphorimager and represented in FIG. 3. The cooperativity ratios were calculated by means of the abovementioned formula. The sequences (DR1)2 17 and (DR1)2 31 bind as many dimeric and tetrameric forms. The cooperativity ratios are 9 and 12.6 respectively. […] The dimeric form forms only 20% of the total binding, whereas the tetrameric form forms 80% of the total binding. The cooperativity ratio is 34 +/−11.

[2] = tested on: PPARα/RXR heterodimer (Cos-1 extracts enriched with PPARα and RXR); assay: Gel retardation, cooperative binding of PPARα/RXR to radiolabeled PPRE sequences; settings: PPARα/RXR 3/1, bands counted on a beta scintillation counter
Description: as §1, §2
With the aim of studying the cooperativity of the binding of PPAR/RXR to these different sequences, gel retardation experiments placing increasing quantities of Cos-1 extracts enriched with PPAR and RXR (1 μl to 10 μl), followed by quantification of the radioactivity obtained, were carried out. […]
Similar experiments were carried out with PPARα. […] Gel retardation experiments using the four radiolabeled sequences and increasing quantities of Cos-1 extracts enriched with PPARα and RXR (rapport3/1) were carried out. The bands corresponding to the dimeric (D) or tetrameric (T) forms or the free probe (P) were cut out of the gel and then quantified by counting on a beta scintillation counter (FIG. 4). […]

[3] = tested on: minimal promoter (−247/+20) of sPLA2-IIA; assay: CAT reporter, minimal promoter (−247/+20) of sPLA2-IIA in transfected chondrocytes; assay type: cell-based, rabbit; settings: for activation of the minimal promoter (−247/+20) of sPLA2-IIA: PGJ2 10 μM or Wy-14643 200 μM, 24 hours
Description: (§3) The hind and forelegs of 3-week-old prepubescent rabbits (Fauve de Bourgogne) were dissected and chopped up under sterile conditions. The cartilage is removed with a scalpel and then the chondrocytes are dissociated by means of proteolytic enzymes: hyaluronidase 0.05% for 15 minutes, trypsine 0.25% for 30 minutes and collagenase 0.2% for 90 minutes. Finally, the HAM's F12 medium is added for 60 minutes. The suspension of chondrocytes is cultured in dishes 6 cm in diameter (150,000 cells per dish) in the presence of HAM's F12 medium containing 10% fetal calf serum.
(§4) When these cells reach preconfluence (6 to 7 days), they are transfected with the various constructs using the calcium phosphate method.
(§5) The CAT activity is measured according to the double liquid phase technique according to Desbois et al. (1992). The β-galactosidase activity is measured with the aim of normalizing the variations in the transfection efficiency.
(§6) The fragment −247/+20 of the promoter of sPLA2 IIA (SEQ ID NO:5) was subcloned upstream of the CAT reporter vector for the plasmid PUC-SH-CAT. Upstream of this promoter, the different PPRE sequences cited above (SEQ ID NO: 1-4) were inserted.
(§7) The rabbit chondrocytes were then transfected with the CAT constructs containing the different arrangements of PPRE (DR1) placed upstream of the minimal promoter of sPLA2-IIA. 15 deoxy Δ^12-14 PGJ2 (10 μM) (activator of PPARγ) or Wy-14643 (200 μM) (activator of PPARα) were then added to the culture medium for 24 hours.
(§8) Rabbit chondrocytes were then transfected, either with the minimal promoter of sPLA2-IIA, or with the sequence (DR1)2 21 placed upstream of the latter (hybrid promoter). PGJ2 (10 μM) and/or IL-1 (10 ng/ml) are added to the culture medium.

[4] = tested on: construct (DR)2 21-(−247/+20) sPLA2-CAT; assay: CAT reporter, hybrid promoter (DR1)2 21-(−247/+20) sPLA2-CAT in transfected chondrocytes; assay type: cell-based, rabbit; settings: for induction of the hybrid promoter, single inducer: PGJ2 10 μM, IL-1 10 ng/ml; for activation of the construct (DR1)2 21-(−247/+20)-CAT: 10^−4 M
Description: as §3, §4, §5, §6, §7, §8

[5] = form not soluble in water, dose 5 to 50 mg/kg, for example 30 mg/kg; cited from earlier work
[6] = tested on: RSV (Rous Sarcoma Virus) promoter (comparator); assay: Transcriptional activity of the synthetic promoter compared with the RSV viral promoter; assay type: cell-based
From the text: Finally, the levels of transcriptional activities reached by a viral promoter, such as the RSV (Rous Sarcoma Virus) promoter, and that of the synthetic promoter were compared. The basal transcriptional activity of the synthetic promoter is low, it is less than 5% of the activity of the RSV viral promoter.

## (DR1)2 31: two DR1s separated center to center by 31 base pairs (DNA CAAAACTAGGTCAAAGGTCATGTCTTTAGGCCCAAAACTAGGTCAAAGGTCA; radiolabeled by Klenow fill-in with 32P-dCTP, further chemistry not given here)
[1]
  cooperativity ratio KdII/KdIV (R): 12.6
[2]
  cooperativity ratio (R): 11.6 and 11

## (DR1)2 17: two DR1s separated center to center by 17 base pairs (DNA CAAAACTAGGTCAAAGGTCAAAACTAGGTCAAAGGTCA; radiolabeled by Klenow fill-in with 32P-dCTP, further chemistry not given here)
[1]
  cooperativity ratio KdII/KdIV (R): 9
[2]
  cooperativity ratio (R): 7

## (DR1)2 21: two DR1s separated center to center by 21 base pairs (DNA CAAAACTAGGTCAAAGGTCATCAAAACTAGGTCAAAGGTCA; radiolabeled by Klenow fill-in with 32P-dCTP, further chemistry not given here)
[1]; PPARγ/RXR
  dimeric form, share of total binding: 20%
  tetrameric form, share of total binding: 80%
[1]
  cooperativity ratio KdII/KdIV (R): 34 +/−11
[2]
  cooperativity ratio (R): 11.2 and 11

## Cc1cccc(Nc2cc(Cl)nc(SCC(=O)O)n2)c1C [Wy-14643, pirinixic acid]
[3]
  activation of the minimal promoter (−247/+20) of sPLA2-IIA: no effect
[3]; listed as Wy 14643
  activation of the minimal promoter (−247/+20) of sPLA2-IIA: not activated
[4]; Wy-14643 200 μM
  activation of transcription of the hybrid construct: 3 to 4 fold

## CN(CCOc1ccc(CC2SC(=O)NC2=O)cc1)c1ccccn1 (centres unmarked) [BRL 49653, rosiglitazone]
[5]
  plasma concentration: about 15 μg/ml

## IL-1: pro-inflammatory cytokine interleukin-1
[3]; 247 bp fragment upstream of first exon of human PLA2s IIA gene, rabbit chondrocytes in primary culture
  stimulation of the activity of the CAT reporter gene: 6 to 8 times
[3]; IL-1 10 ng/ml in culture medium
  induction of the promoter of sPLA2-IIA: 6 fold
[4]
  induction of the hybrid promoter, single inducer: 4 fold

## COc1ccc2c(c1)c(CC(=O)O)c(C)n2C(=O)c1ccc(Cl)cc1 [indomethacin]
[4]
  activation of the construct (DR1)2 21-(−247/+20)-CAT: about fivefold

## CC(C)Cc1ccc(C(C)C(=O)O)cc1 (centres unmarked) [ibuprofen]
[4]
  activation of the construct (DR1)2 21-(−247/+20)-CAT: 17 fold

## C[C@@H]1C[C@H]2[C@@H]3CCC4=CC(=O)C=C[C@]4(C)[C@@]3(F)[C@@H](O)C[C@]2(C)[C@@]1(O)C(=O)CO [Dexamethasone, dexamethasone]
[4]; dexamethasone alone, concentration not given
  activation of transcription of the synthetic promoter: about 6 fold

## CCCCC/C=C/C=C1/C(=O)C=C[C@@H]1C/C=C\CCCC(=O)O [PGJ2, 15 deoxy Δ^12-14 PGJ2]
[3]
  activation of the minimal promoter (−247/+20) of sPLA2-IIA: not activated
[3]; listed as prostaglandin J2
  activation of the minimal promoter (−247/+20) of sPLA2-IIA: no effect
[4]
  induction of the hybrid promoter, single inducer: 4 fold

B1: synthetic promoter: PPAR response element (DR1)2 21 linked to fragment −247/+20 of the PLA2s IIA gene (nucleic acid)
DNA: GTACCAATTCGACAAAACTAGGTCAAAGGTCATCAAAACTAGGTCAAAGGTCAAATTCGAACGCGGCAAAACTGCCTGAAATGTGTTTTGGCATCAGCTACTGACACGTAAGGTTTCCCAATCCTCAACTCTGTCCTGCCAGCTGATGAGGGGAAGGAAAGGGATTACCTAGGGGTATGGGCGACCAATCCTGAGTCCACCAACTGACCACGCCCATCCCCAGCCTTGTGCCTCACCTACCCCCAACCTCCCAGAGGGAGCAGCTATTTAAGGGGAGCAGGAGTGCAGAACAAACAAGACGGCCTGGGGATACAACTCTGGAGTCCTCTGAG
modifications: PPRE/PLA2s hybrid promoter
notes: PPAR response element (DR1)2 21 linked to fragment −247/+20 of the PLA2s IIA gene
[6]; after induction with the different effectors (results not shown)
  transcriptional activity relative to RSV after induction: 40%
[6]; not induced
  basal transcriptional activity, relative to the RSV viral promoter: less than 5%
